In patent US20200339625A1, “NOVEL RADIOMETAL-BINDING COMPOUNDS FOR DIAGNOSIS OR TREATMENT OF PROSTATE SPECIFIC MEMBRANE ANTIGEN-EXPRESSING CANCER” (PROVINCIAL HEALTH SERVICES AUTHORITY, priority 2017, published 2020):
Values belong to the molecule of their own block, whether it stands above or below them.

Experiments:
[1] = tested on: mice bearing PSMA-expressing LNCAP cancer xenografts; test: Biodistribution of 68Ga-labeled compounds; type: in vivo
Procedure, shortened: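 NOD-SCID IL2RγKO male mice carried subcutaneous LNCaP xenografts grown to 5-8 mm over 5-6 weeks. Organs and blood were collected at 1 or 3 h after injection of the radiotracer and gamma-counted. Uptake was normalized to injected dose via a standard curve and expressed as %ID/g.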

[2] = tested on: mice bearing LNCaP tumor xenografts; test: PET/CT imaging of 68Ga-labeled compounds; type: in vivo
Description: 2.17 PET/CT Imaging and Biodistribution
Imaging and biodistribution experiments were performed using NODSCID 1L2RyKO male mice. Mice were anesthetized by inhalation with 2% isoflurane in oxygen, and implanted subcutaneously with 1×10^7 LNCaP cells behind left shoulder. Mice were imaged or used in biodistribution studies when the tumor grew up to reach 5-8 mm in diameter during 5-6 weeks.
PET imaging experiments were conducted using Siemens Inveon micro PET/CT scanner. Each tumor bearing mouse was injected 6-8 MBq of 68Ga-labeled tracer through the tail vein under anesthesia (2% isoflurane in oxygen). The mice were allowed to recover and roam freely in their cage. After 50 min, the mice were sedated again with 2% isoflurane in oxygen inhalation and positioned in the scanner. A 10-min CT scan was conducted first for localization and attenuation correction after segmentation for reconstructing the PET images. Then, a 10-min static PET imaging was performed to determined uptake in tumor and other organs. The mice were kept warm by a heating pad during acquisition. For imaging studies acquired at 3 h post-injection (p.i.), the mice were placed in the micro PET/CT scanner at 170 min p.i. Then, the CT acquisitions were conducted as described above, a 15-min static PET imaging was performed to determined uptake in tumor and other organs.

Adrenal glands uptake ([1]; 1 h post-injection): 5.51 ± 1.56 % ID/g
Blood uptake ([1]; 1 h post-injection): 22.1 ± 2.04 % ID/g
Bone uptake ([1]; 1 h post-injection): 1.59 ± 0.44 % ID/g
Brain uptake ([1]; 1 h post-injection): 0.29 ± 0.04 % ID/g
Fat uptake ([1]; 1 h post-injection): 2.20 ± 0.41 % ID/g
Heart uptake ([1]; 1 h post-injection): 5.20 ± 0.59 % ID/g
Intestine uptake ([1]; 1 h post-injection): 1.52 ± 0.21 % ID/g
Kidneys uptake ([1]; 1 h post-injection): 31.1 ± 4.40 % ID/g
Lacrimal uptake ([1]; 1 h post-injection): 1.82 ± 1.46 % ID/g
Liver uptake ([1]; 1 h post-injection): 3.35 ± 1.08 % ID/g
Lungs uptake ([1]; 1 h post-injection): 8.37 ± 1.10 % ID/g
Muscle uptake ([1]; 1 h post-injection): 1.60 ± 0.19 % ID/g
Pancreas uptake ([1]; 1 h post-injection): 2.02 ± 0.32 % ID/g
Salivary uptake ([1]; 1 h post-injection): 3.87 ± 0.70 % ID/g
Seminal uptake ([1]; 1 h post-injection): 1.19 ± 0.18 % ID/g
Spleen uptake ([1]; 1 h post-injection): 3.05 ± 0.63 % ID/g
Stomach uptake ([1]; 1 h post-injection): 0.62 ± 0.09 % ID/g
Tail uptake ([1]; 1 h post-injection): 4.42 ± 0.76 % ID/g
Testes uptake ([1]; 1 h post-injection): 2.54 ± 0.34 % ID/g
Thyroid uptake ([1]; 1 h post-injection): 4.20 ± 0.53 % ID/g
Tumor uptake ([1]; 1 h post-injection): 17.2 ± 1.67 % ID/g
Tumor:Blood ratio ([1]; 1 h post-injection): 0.78 ± 0.04
Tumor:Muscle ratio ([1]; 1 h post-injection): 10.8 ± 1.15
Tumor:kidney ratio ([1]; 1 h post-injection): 0.56 ± 0.06
Urine uptake ([1]; 1 h post-injection): 14.6 ± 10.9 % ID/g
Adrenal glands uptake ([1]; 3 h post-injection): 6.45 ± 1.03 % ID/g
Blood uptake ([1]; 3 h post-injection): 17.4 ± 1.15 % ID/g
Bone uptake ([1]; 3 h post-injection): 2.11 ± 0.62 % ID/g
Brain uptake ([1]; 3 h post-injection): 0.28 ± 0.06 % ID/g
Fat uptake ([1]; 3 h post-injection): 2.12 ± 0.69 % ID/g
Heart uptake ([1]; 3 h post-injection): 3.89 ± 0.40 % ID/g
Intestine uptake ([1]; 3 h post-injection): 1.29 ± 0.18 % ID/g
Kidneys uptake ([1]; 3 h post-injection): 35.6 ± 7.23 % ID/g
Lacrimal uptake ([1]; 3 h post-injection): 4.14 ± 3.82 % ID/g
Liver uptake ([1]; 3 h post-injection): 2.96 ± 0.56 % ID/g
Lungs uptake ([1]; 3 h post-injection): 7.50 ± 1.05 % ID/g
Muscle uptake ([1]; 3 h post-injection): 1.26 ± 0.18 % ID/g
Pancreas uptake ([1]; 3 h post-injection): 1.74 ± 0.30 % ID/g
Salivary uptake ([1]; 3 h post-injection): 3.57 ± 1.07 % ID/g
Seminal uptake ([1]; 3 h post-injection): 1.07 ± 0.12 % ID/g
Spleen uptake ([1]; 3 h post-injection): 3.07 ± 0.78 % ID/g
Stomach uptake ([1]; 3 h post-injection): 0.59 ± 0.13 % ID/g
Tail uptake ([1]; 3 h post-injection): 3.52 ± 0.65 % ID/g
Testes uptake ([1]; 3 h post-injection): 2.63 ± 0.49 % ID/g
Thyroid uptake ([1]; 3 h post-injection): 3.40 ± 0.56 % ID/g
Tumor uptake ([1]; 3 h post-injection): 30.1 ± 3.12 % ID/g
Tumor:Blood ratio ([1]; 3 h post-injection): 1.75 ± 0.28
Tumor:Muscle ratio ([1]; 3 h post-injection): 24.5 ± 5.08
Tumor:kidney ratio ([1]; 3 h post-injection): 0.88 ± 0.22
Urine uptake ([1]; 3 h post-injection): 33.8 ± 22.3 % ID/g
change of tumor uptake from 1 h to 3 h post-injection ([2]; PET/CT images): uptake in tumors increases over time
blood retention (qualitative) ([2]; PET/CT images at 1 h and 3 h post-injection, comparison within the figure): some extent of blood retention
SMILES: O=C([O-])CN1CCN(CC(=O)[O-])CCN(CC(=O)NCCCC[C@H](NC(=O)CNC(=O)CCCc2ccc(Cl)cc2)C(=O)NC[C@H]2CC[C@H](C(=O)N[C@@H](Cc3ccc4ccccc4c3)C(=O)NCCCC[C@H](NC(=O)N[C@@H](CCC(=O)O)C(=O)O)C(=O)O)CC2)CCN(CC(=O)[O-])CC1.[68Ga+3] [^68Ga-HTK03055]

Adrenal glands uptake ([1]; 1 h post-injection): 8.90 ± 2.56 % ID/g
Blood uptake ([1]; 1 h post-injection): 1.43 ± 0.30 % ID/g
Bone uptake ([1]; 1 h post-injection): 1.29 ± 0.45 % ID/g
Brain uptake ([1]; 1 h post-injection): 0.10 ± 0.05 % ID/g
Fat uptake ([1]; 1 h post-injection): 2.06 ± 0.59 % ID/g
Heart uptake ([1]; 1 h post-injection): 1.82 ± 0.21 % ID/g
Intestine uptake ([1]; 1 h post-injection): 1.14 ± 0.18 % ID/g
Kidneys uptake ([1]; 1 h post-injection): 170 ± 26.4 % ID/g
Lacrimal uptake ([1]; 1 h post-injection): 2.44 ± 1.79 % ID/g
Liver uptake ([1]; 1 h post-injection): 1.38 ± 0.25 % ID/g
Lungs uptake ([1]; 1 h post-injection): 4.32 ± 0.62 % ID/g
Muscle uptake ([1]; 1 h post-injection): 0.75 ± 0.09 % ID/g
Pancreas uptake ([1]; 1 h post-injection): 1.47 ± 0.16 % ID/g
Salivary uptake ([1]; 1 h post-injection): 4.99 ± 0.88 % ID/g
Seminal uptake ([1]; 1 h post-injection): 1.03 ± 0.27 % ID/g
Spleen uptake ([1]; 1 h post-injection): 8.95 ± 3.22 % ID/g
Stomach uptake ([1]; 1 h post-injection): 0.41 ± 0.11 % ID/g
Tail uptake ([1]; 1 h post-injection): 1.36 ± 0.45 % ID/g
Testes uptake ([1]; 1 h post-injection): 1.34 ± 0.22 % ID/g
Thyroid uptake ([1]; 1 h post-injection): 2.48 ± 0.44 % ID/g
Tumor uptake ([1]; 1 h post-injection): 23.1 ± 6.11 % ID/g
Tumor:Blood ratio ([1]; 1 h post-injection): 17.3 ± 7.24
Tumor:Muscle ratio ([1]; 1 h post-injection): 31.6 ± 12.1
Tumor:kidney ratio ([1]; 1 h post-injection): 0.14 ± 0.04
Urine uptake ([1]; 1 h post-injection): 173 ± 93.01 % ID/g
Adrenal glands uptake ([1]; 3 h post-injection): 4.04 ± 1.20 % ID/g
Blood uptake ([1]; 3 h post-injection): 0.83 ± 0.27 % ID/g
Bone uptake ([1]; 3 h post-injection): 0.98 ± 0.40 % ID/g
Brain uptake ([1]; 3 h post-injection): 0.06 ± 0.02 % ID/g
Fat uptake ([1]; 3 h post-injection): 1.06 ± 0.20 % ID/g
Heart uptake ([1]; 3 h post-injection): 0.93 ± 0.17 % ID/g
Intestine uptake ([1]; 3 h post-injection): 0.67 ± 0.09 % ID/g
Kidneys uptake ([1]; 3 h post-injection): 121 ± 37.6 % ID/g
Lacrimal uptake ([1]; 3 h post-injection): 2.82 ± 3.84 % ID/g
Liver uptake ([1]; 3 h post-injection): 0.82 ± 0.15 % ID/g
Lungs uptake ([1]; 3 h post-injection): 2.14 ± 0.39 % ID/g
Muscle uptake ([1]; 3 h post-injection): 0.40 ± 0.06 % ID/g
Pancreas uptake ([1]; 3 h post-injection): 0.71 ± 0.12 % ID/g
Salivary uptake ([1]; 3 h post-injection): 2.11 ± 0.57 % ID/g
Seminal uptake ([1]; 3 h post-injection): 4.56 ± 9.00 % ID/g
Spleen uptake ([1]; 3 h post-injection): 4.19 ± 1.58 % ID/g
Stomach uptake ([1]; 3 h post-injection): 0.26 ± 0.06 % ID/g
Tail uptake ([1]; 3 h post-injection): 0.86 ± 0.73 % ID/g
Testes uptake ([1]; 3 h post-injection): 0.89 ± 0.12 % ID/g
Thyroid uptake ([1]; 3 h post-injection): 1.19 ± 0.23 % ID/g
Tumor uptake ([1]; 3 h post-injection): 28.2 ± 9.17 % ID/g
Tumor:Blood ratio ([1]; 3 h post-injection): 36.6 ± 15.4
Tumor:Muscle ratio ([1]; 3 h post-injection): 73.8 ± 30.9
Tumor:kidney ratio ([1]; 3 h post-injection): 0.26 ± 0.13
Urine uptake ([1]; 3 h post-injection): 171 ± 93.3 % ID/g
change of tumor uptake from 1 h to 3 h post-injection ([2]; PET/CT images): increases from 1 h to 3 h post-injection
excretion pathway ([2]; PET/CT images): excreted mainly via the renal pathway
tumor uptake (qualitative comparison) ([2]; PET/CT images, compounds of FIG. 13): highest tumor uptake
SMILES: O=C([O-])CN1CCN(CC(=O)[O-])CCN(CC(=O)NCC2CCC(C(=O)NC(Cc3c4ccccc4cc4ccccc34)C(=O)NCCCCC(NC(=O)NC(CCC(=O)O)C(=O)O)C(=O)O)CC2)CCN(CC(=O)[O-])CC1.[68Ga+3] (stereo not drawn) [^68Ga-HTK03041]
